Species: Rattus norvegicus
Assay: DrugMatrix - Regimen: Daily Repeat
Assay type: toxicity, organism-based, Sprague-Dawley
Design: regimen Daily Repeat, gender Male, age 6-8 weeks
Details: in vivo, po, route oral GAVAGE; for POTASSIUM / SODIUM / TOTAL BILIRUBIN / TOTAL PROTEIN / URIC ACID / ALANINE AMINOTRANSFERASE / ALBUMIN / ALKALINE PHOSPHATASE / ASPARTATE AMINOTRANSFERASE / BLOOD UREA NITROGEN / CARBON DIOXIDE / CHLORIDE / CHOLESTEROL / CREATINE PHOSPHOKINASE / CREATININE / GLUCOSE / LACTATE DEHYDROGENASE / LIPASE / PHOSPHORUS: tissue Plasma; for BASOPHIL / EOSINOPHIL / ERYTHROCYTE COUNT / HEMATOCRIT / HEMOGLOBIN / LEUKOCYTE COUNT / LYMPHOCYTE / MEAN CORPUSCULAR HEMOGLOBIN / MEAN CORPUSCULAR HEMOGLOBIN CONCENTRATION / MEAN CORPUSCULAR VOLUME / MONOCYTE / NEUTROPHIL / PLATELET COUNT: tissue Blood
[1] = 40 mg/kg, […], dose level Low, time 14 day
[2] = 75 mg/kg, 72 h, dose level High, time 3 day, vehicle 100 % WATER
[3] = 75 mg/kg, 120 h, dose level High, time 5 day, vehicle 100 % WATER

Question: What does the source list for C=CCN [ALLYLAMINE]?
Answer: POTASSIUM [1]: 6.2 MEQ/L; SODIUM [1]: 145.8 MEQ/L; TOTAL BILIRUBIN [1]: 0.4 mg/dL; TOTAL PROTEIN [1]: 6.92 G/DL; URIC ACID [1]: 0.58 mg/dL; BASOPHIL [2]: 0.63%; EOSINOPHIL [2]: 0.23%; ERYTHROCYTE COUNT [2]: 6.73 x10E6/uL; HEMATOCRIT [2]: 44.27%; HEMOGLOBIN [2]: 14.4 G/DL; LEUKOCYTE COUNT [2]: 16.4 x10E3/uL; LYMPHOCYTE [2]: 77.37%; MEAN CORPUSCULAR HEMOGLOBIN [2]: 21.43 pg; MEAN CORPUSCULAR HEMOGLOBIN CONCENTRATION [2]: 32.6 G/DL; MEAN CORPUSCULAR VOLUME [2]: 65.77 fL; MONOCYTE [2]: 2.5%; NEUTROPHIL [2]: 16.67%; PLATELET COUNT [2]: 1260.67 x10E3/uL; ALANINE AMINOTRANSFERASE [2]: 39 u/L; ALBUMIN [2]: 3.9 G/DL; ALKALINE PHOSPHATASE [2]: 237 u/L; ASPARTATE AMINOTRANSFERASE [2]: 74.33 u/L; BLOOD UREA NITROGEN [2]: 13.67 mg/dL; CARBON DIOXIDE [2]: 24.67 mmol/L; CHLORIDE [2]: 108 MEQ/L; CHOLESTEROL [2]: 104.33 mg/dL; CREATINE PHOSPHOKINASE [2]: 169 u/L; CREATININE [2]: 0.4 mg/dL; GLUCOSE [2]: 146 mg/dL; LACTATE DEHYDROGENASE [2]: 59 u/L; LIPASE [2]: 35.33 u/L; PHOSPHORUS [2]: 11.03 mg/dL; POTASSIUM [2]: 5.8 MEQ/L; SODIUM [2]: 151 MEQ/L; TOTAL BILIRUBIN [2]: 0.23 mg/dL; TOTAL PROTEIN [2]: 6.07 G/DL; URIC ACID [2]: 1.93 mg/dL; BASOPHIL [3]: 0.35%; EOSINOPHIL [3]: 0.7%; ERYTHROCYTE COUNT [3]: 6.38 x10E6/uL; HEMATOCRIT [3]: 42.1%; HEMOGLOBIN [3]: 13.35 G/DL; LEUKOCYTE COUNT [3]: 11.54 x10E3/uL; LYMPHOCYTE [3]: 82.75%; MEAN CORPUSCULAR HEMOGLOBIN [3]: 20.9 pg; MEAN CORPUSCULAR HEMOGLOBIN CONCENTRATION [3]: 31.65 G/DL; MEAN CORPUSCULAR VOLUME [3]: 66.05 fL; MONOCYTE [3]: 2%; NEUTROPHIL [3]: 6.45%; PLATELET COUNT [3]: 1169 x10E3/uL; ALANINE AMINOTRANSFERASE [3]: 28.5 u/L; ALBUMIN [3]: 4 G/DL; ALKALINE PHOSPHATASE [3]: 238.5 u/L; ASPARTATE AMINOTRANSFERASE [3]: 69.5 u/L; BLOOD UREA NITROGEN [3]: 17.5 mg/dL; CARBON DIOXIDE [3]: 23 mmol/L; CHLORIDE [3]: 107.5 MEQ/L; CHOLESTEROL [3]: 62 mg/dL; CREATINE PHOSPHOKINASE [3]: 269 u/L; CREATININE [3]: 0.25 mg/dL; GLUCOSE [3]: 145 mg/dL; LACTATE DEHYDROGENASE [3]: 62 u/L; LIPASE [3]: 19 u/L; PHOSPHORUS [3]: 13.95 mg/dL; POTASSIUM [3]: 7.05 MEQ/L; SODIUM [3]: 149.5 MEQ/L; TOTAL BILIRUBIN [3]: 0.4 mg/dL; TOTAL PROTEIN [3]: 6.15 G/DL; URIC ACID [3]: 2.85 mg/dL
